From patent US9145426B2, “Pyrrolidine-fused thiadiazine dioxide compounds as BACE inhibitors, compositions, and their use” (Merck Sharp & Dohme Corp., priority 2011, dated 2015)
pKi: −log10 of the molar value.

What was measured:
[1] = target: soluble human BACE1 catalytic domain (Homo sapiens (Human), UniProt P56817); assay: BACE1 HTRF FRET Assay; format: biochemical; settings: calculated from IC50 using the Cheng-Prusoff equation; read-out: BACE-1 Ki
Excerpt: Na^+-Acetate pH 5.0; 1% Brij-35; Glycerol; Dimethyl Sulfoxide (DMSO); Recombinant human soluble BACE1 catalytic domain (>95% pure); APP Swedish mutant peptide substrate (QSY7-APP^swe-Eu): QSY7-[…]-Europium-amide.
A homogeneous time-resolved FRET assay was used to determine IC50 values for inhibitors of the soluble human BACE1 catalytic domain. This assay monitored the increase of 620 nm fluorescence that resulted from BACE1 cleavage of an APPswedish APP^swe mutant peptide FRET substrate (QSY7-[…]-Europium-amide). This substrate contained an N-terminal QSY7 moiety that served as a quencher of the C-terminal Europium fluorophore (620 nm Em). In the absence of enzyme activity, 620 nm fluorescence was low in the assay and increased linearly over 3 hours in the presence of uninhibited BACE1 enzyme. Inhibition of BACE1 cleavage of the QSY7-APP^swe-Eu substrate by inhibitors was manifested as a suppression of 620 nm fluorescence.
Reactions were initiated by addition of 10 μl of 600 nM QSY7-APP^swe-Eu substrate (200 nM final) to give a final reaction volume of 30 μl in a 384 well Nunc HTRF plate. The reactions were incubated at 30° C. for 1.5 hours. The 620 nm fluorescence was then read on a Rubystar HTRF plate reader (BMG Labtechnologies) using a 50 […]s delay followed by a 400 millisecond acquisition time window. Inhibitor IC50 values were derived from non-linear regression analysis of concentration response curves.

[2] = target: purified human autoBACE-2 (Homo sapiens, UniProt Q9Y5Z0); assay: BACE-2 Assay (BACE-HTRF assay); format: biochemical; settings: calculated from IC50 using the Cheng-Prusoff equation
Sequence of purified human autoBACE-2 (Q9Y5Z0 63-518 limits assumed): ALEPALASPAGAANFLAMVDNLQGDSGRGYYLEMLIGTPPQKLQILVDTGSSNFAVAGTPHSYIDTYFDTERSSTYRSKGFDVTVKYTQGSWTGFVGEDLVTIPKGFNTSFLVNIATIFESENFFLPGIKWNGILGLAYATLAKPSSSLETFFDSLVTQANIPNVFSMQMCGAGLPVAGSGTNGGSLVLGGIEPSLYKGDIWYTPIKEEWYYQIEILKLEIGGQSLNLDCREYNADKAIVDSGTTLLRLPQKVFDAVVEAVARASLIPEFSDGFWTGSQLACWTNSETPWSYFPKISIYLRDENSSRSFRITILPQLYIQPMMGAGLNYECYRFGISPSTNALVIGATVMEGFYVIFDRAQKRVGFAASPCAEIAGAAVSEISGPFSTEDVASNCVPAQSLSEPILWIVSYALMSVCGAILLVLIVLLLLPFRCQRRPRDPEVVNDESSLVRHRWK
Method: DMSO was present at 5% final concentration in the assay. Following laser excitation of sample wells at 320 nm, the fluorescence signal at 620 nm was collected for 400 ms following a 50 μs delay on a RUBYstar HTRF plate reader (BMG Labtechnologies). […] The Ki values were calculated from the IC50 using the Cheng-Prusoff equation.

Sequence of soluble human BACE1 catalytic domain (P56817 75-416): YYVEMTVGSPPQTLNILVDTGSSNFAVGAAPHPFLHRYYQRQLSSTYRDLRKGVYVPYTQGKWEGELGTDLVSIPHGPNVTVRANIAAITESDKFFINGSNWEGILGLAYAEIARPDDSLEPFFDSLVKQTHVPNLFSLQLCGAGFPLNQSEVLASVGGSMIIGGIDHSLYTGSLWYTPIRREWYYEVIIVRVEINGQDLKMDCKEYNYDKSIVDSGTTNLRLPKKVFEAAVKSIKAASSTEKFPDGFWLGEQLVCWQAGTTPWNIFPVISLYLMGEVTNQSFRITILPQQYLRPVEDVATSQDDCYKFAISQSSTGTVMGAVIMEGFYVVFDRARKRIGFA

Row | pKi [1] | pKi [2] | Compound
1 | 7.49 | 8.49 | CC(=O)N1CC2[C@](c3cc(NC(=O)c4ccc(F)cn4)ccc3F)(C1)NC(=N)N(C)S2(=O)=O (mixture of isomers) [Ex. 18]
2 | 8.92 | 8.80 | COc1nc(N2CC3[C@](c4cc(NC(=O)c5ccc(F)cn5)ccc4F)(C2)NC(=N)N(C)S3(=O)=O)nc(C)c1F (mixture of isomers) [Ex. 19]
3 | 7.21 | – | CCOCc1cc(OC)nc(N2CC3C(c4ccccc4)(C2)NC(=N)N(C)S3(=O)=O)c1 (racemic) [Ex. 11]
4 | 7.52 | – | COc1nc(N2CC3C(c4ccccc4)(C2)NC(=N)N(C)S3(=O)=O)nc(OC)c1F (racemic) [Ex. 13]
5 | 7.09 | – | CCc1nc(N2CC3C(c4ccccc4)(C2)NC(=N)N(C)S3(=O)=O)nc(OC)c1F (racemic) [Ex. 15]
6 | 5.81 | – | Cc1cccc(N2CC3C(c4ccccc4)(C2)NC(=N)N(C)S3(=O)=O)c1 (racemic) [Ex. 17]
7 | 7.49 | 7.72 | COc1nc(N2C[C@@H]3[C@](c4cc(F)c(F)cc4F)(C2)NC(=N)N(C)S3(=O)=O)nc(C)c1F (stereo in doubt) [Ex. 5]
8 | – | 7.80 | COc1nc(N2C[C@@H]3[C@](c4ccccc4)(C2)NC(=N)N(C)S3(=O)=O)nc(C)c1F [Ex. 1]
9 | 8.15 | 8.49 | COCc1cc(OC)nc(N2CC3[C@](c4cc(F)c(F)cc4F)(C2)NC(=N)N(C)S3(=O)=O)c1 (some centres unmarked) [Ex. 7]
10 | 8.15 | 8.30 | COCc1cc(OC)nc(N2CC3[C@](c4ccccc4F)(C2)NC(=N)N(C)S3(=O)=O)c1 (some centres unmarked) [Ex. 8]

Row | Compound | pKi [1] | pKi [2]
11 | COc1nc(N2C[C@@H]3[C@](c4ccc(F)cc4)(C2)NC(=N)N(C)S3(=O)=O)nc(C)c1F (stereo in doubt) [Ex. 2] | – | 7.85
12 | COc1nc(N2C[C@@H]3[C@](c4cc(F)ccc4F)(C2)NC(=N)N(C)S3(=O)=O)nc(C)c1F (stereo in doubt) [Ex. 3] | – | 7.85
13 | COc1nc(N2C[C@@H]3[C@](c4ccccc4F)(C2)NC(=N)N(C)S3(=O)=O)nc(C)c1F (stereo in doubt) [Ex. 4] | – | 8.27
14 | COCc1cc(OC)nc(N2C[C@@H]3[C@](c4cc(F)ccc4F)(C2)NC(=N)N(C)S3(=O)=O)c1 (stereo in doubt) [Ex. 9] | – | 8.77
15 | COc1nc(N2CC3[C@](c4ccc(F)cc4F)(C2)NC(=N)N(C)S3(=O)=O)nc(C)c1F (some centres unmarked) [Ex. 6] | – | 8.07
